Measured values: patent publication US9040523B2, “Antifungal 5,6-dihydro-4H-pyrrolo[1,2-α][1,4]-benzodiazepines and 6H-pyrrolo[1,2-α][1,4]benzodiazepines substituted with benzene derivatives” (JANSSEN PHARMACEUTICA NV, priority 2010, dated 2015)

Key:
[1] = molecular target: T1, Cytochrome P450 2C8 (Homo sapiens, UniProt P10632); assay: Human liver microsomal cytochrome P450 cocktail inhibition assay, Protocol C; type: in vitro ADME; conditions: human liver microsomes 0.2 mg/ml, probe amodiaquine 2 microM; for IC50: read-out: 2C8_Amod pIC50 (converted)
T1 construct: tissue BD Gentest; host or cells: human liver microsomes
T1 sequence (P10632 1-490): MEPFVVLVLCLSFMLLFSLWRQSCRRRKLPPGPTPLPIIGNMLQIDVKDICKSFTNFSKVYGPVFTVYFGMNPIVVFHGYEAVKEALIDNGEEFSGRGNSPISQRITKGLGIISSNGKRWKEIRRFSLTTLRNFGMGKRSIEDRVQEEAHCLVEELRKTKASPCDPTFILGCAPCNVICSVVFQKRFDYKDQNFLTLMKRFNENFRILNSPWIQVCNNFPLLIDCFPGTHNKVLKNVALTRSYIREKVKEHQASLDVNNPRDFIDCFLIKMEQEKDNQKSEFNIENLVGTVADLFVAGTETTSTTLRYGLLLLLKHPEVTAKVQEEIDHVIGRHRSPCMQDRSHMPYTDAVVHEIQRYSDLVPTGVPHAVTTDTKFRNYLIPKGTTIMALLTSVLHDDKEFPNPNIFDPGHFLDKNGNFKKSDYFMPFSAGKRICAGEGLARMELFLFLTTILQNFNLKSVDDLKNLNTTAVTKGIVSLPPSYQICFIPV
Method: (§1) Probe substrates and final assay concentrations with the appropriate internal standard are outlined in Table 6a.
(§2) Assays were performed in 0.1 M phosphate buffer (pH 7.4), containing 0.2 mg/ml human liver microsomes (BD Gentest) and a probe substrate mix consisting of: phenacetin, tolbutamide, S-mephenyloin, dextromethorphan, amodiaquine and midazolam (Table 6a) and a range of test compound concentrations (0 to 30 micromolar) in a total volume of 100 microliters. After a 10 min pre-incubation at 37° C., the reaction was started with addition of NADPH at a final concentration of 1.0 mM. […] The samples are centrifuged for 10 min at 4° C. at 4000 rpm and 60 microliters supernatant is diluted with 180 microliters water. Each sample is injected onto a UPLC/MS system for the simultaneous measurement of the probe substrate metabolites and their associated deuterated internal standards. Percentage inhibition is calculated according to: %-inhibition=(1−Ri/R)*100, whereby Ri and R are the metabolite to internal standard peak area ratios in the presence and absence of inhibitor respectively.
(§3) Percentage inhibition data are plotted against the Log transformed test compound concentration and after curve fitting the IC50-value is determined.

[2] = molecular target: Cytochrome P450 2C19 (Homo sapiens, UniProt P33261); assay: as above; conditions: 2C19_S-Meph pIC50, human liver microsomes 0.2 mg/ml; probe S-mephenytoin 30 microM
Cytochrome P450 2C19, sequence (P33261 whole entry): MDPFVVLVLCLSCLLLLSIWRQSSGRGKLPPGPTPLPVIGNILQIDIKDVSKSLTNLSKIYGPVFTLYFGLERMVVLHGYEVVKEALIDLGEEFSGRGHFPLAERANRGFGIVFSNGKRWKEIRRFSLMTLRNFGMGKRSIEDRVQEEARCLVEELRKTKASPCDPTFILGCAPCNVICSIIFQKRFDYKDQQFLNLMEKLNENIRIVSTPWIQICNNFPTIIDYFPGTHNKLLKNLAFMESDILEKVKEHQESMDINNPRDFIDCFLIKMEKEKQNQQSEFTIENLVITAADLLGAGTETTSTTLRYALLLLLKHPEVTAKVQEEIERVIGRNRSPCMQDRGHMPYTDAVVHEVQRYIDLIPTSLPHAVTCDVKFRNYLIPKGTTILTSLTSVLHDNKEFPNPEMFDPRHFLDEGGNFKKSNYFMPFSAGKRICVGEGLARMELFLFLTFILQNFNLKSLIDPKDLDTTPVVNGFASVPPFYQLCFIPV
Method: as §1, §2, §3

[3] = molecular target: Cytochrome P450 2D6 (Homo sapiens, UniProt P10635); assay: as above; conditions: 2D6_Dextro pIC50, human liver microsomes 0.2 mg/ml; probe dextromethorphan 3 microM
Cytochrome P450 2D6, sequence (P10635 whole entry): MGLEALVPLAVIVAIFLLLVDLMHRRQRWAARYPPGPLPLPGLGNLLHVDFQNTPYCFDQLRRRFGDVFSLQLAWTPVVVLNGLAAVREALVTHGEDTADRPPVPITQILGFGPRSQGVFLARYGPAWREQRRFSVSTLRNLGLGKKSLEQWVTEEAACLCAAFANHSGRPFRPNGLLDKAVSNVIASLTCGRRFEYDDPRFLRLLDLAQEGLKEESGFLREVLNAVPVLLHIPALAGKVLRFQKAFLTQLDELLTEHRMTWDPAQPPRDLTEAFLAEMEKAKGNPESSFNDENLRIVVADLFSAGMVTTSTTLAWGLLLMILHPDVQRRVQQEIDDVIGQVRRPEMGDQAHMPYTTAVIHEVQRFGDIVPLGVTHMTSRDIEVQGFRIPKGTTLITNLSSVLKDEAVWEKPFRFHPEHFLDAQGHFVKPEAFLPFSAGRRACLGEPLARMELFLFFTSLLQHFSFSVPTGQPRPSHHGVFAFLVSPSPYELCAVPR
Method: as §1, §2, §3

[4] = molecular target: CYP2C9 (Homo sapiens, UniProt P11712); assay: as above; conditions: human, liver microsomes, pH 7.4, probe tolbutamide (100 microM), 2C9 Tolbut pIC50, human liver microsomes 0.2 mg/ml
CYP2C9, sequence (P11712 whole entry): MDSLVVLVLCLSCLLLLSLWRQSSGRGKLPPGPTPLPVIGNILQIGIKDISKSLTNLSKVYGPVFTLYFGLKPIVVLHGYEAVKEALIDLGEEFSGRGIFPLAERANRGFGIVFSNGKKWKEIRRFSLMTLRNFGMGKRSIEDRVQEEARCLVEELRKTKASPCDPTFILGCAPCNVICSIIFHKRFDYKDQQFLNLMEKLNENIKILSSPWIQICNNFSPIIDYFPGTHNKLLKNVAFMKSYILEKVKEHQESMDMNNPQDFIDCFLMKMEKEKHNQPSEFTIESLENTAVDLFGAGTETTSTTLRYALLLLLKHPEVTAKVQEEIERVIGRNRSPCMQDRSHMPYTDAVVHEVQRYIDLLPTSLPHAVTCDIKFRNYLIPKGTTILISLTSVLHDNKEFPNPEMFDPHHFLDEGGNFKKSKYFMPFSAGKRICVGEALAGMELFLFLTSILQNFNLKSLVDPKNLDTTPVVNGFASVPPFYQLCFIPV
Method: as §1, §2, §3

[5] = molecular target: T2, Cytochrome P450 1A2 (Homo sapiens, UniProt P05177); assay: as above; conditions: for 1A2_Phen pIC50: human liver microsomes 0.2 mg/ml, probe phenacetin 80 microM
T2 sequence (P05177 1-516): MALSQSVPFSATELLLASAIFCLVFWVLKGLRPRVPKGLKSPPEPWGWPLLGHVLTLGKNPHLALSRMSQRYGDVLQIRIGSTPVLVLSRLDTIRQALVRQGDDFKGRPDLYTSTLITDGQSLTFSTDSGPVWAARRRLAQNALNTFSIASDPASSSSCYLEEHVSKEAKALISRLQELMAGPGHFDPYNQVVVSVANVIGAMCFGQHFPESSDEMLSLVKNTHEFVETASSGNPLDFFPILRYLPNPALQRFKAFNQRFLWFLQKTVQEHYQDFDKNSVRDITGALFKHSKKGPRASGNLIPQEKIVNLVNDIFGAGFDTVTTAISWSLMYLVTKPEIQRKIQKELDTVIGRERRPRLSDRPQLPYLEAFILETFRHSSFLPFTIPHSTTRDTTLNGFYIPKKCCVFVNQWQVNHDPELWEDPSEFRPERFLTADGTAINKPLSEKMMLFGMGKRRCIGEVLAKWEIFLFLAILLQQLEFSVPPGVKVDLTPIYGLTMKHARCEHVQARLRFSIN
Method: as §1, §2, §3

[6] = molecular target: CYP3A4/5 (Homo sapiens, UniProt P08684); assay: in vitro; conditions: liver microsomes, pH 7.4, probe midazolam (2 microM)
CYP3A4/5, sequence (P08684 2-503): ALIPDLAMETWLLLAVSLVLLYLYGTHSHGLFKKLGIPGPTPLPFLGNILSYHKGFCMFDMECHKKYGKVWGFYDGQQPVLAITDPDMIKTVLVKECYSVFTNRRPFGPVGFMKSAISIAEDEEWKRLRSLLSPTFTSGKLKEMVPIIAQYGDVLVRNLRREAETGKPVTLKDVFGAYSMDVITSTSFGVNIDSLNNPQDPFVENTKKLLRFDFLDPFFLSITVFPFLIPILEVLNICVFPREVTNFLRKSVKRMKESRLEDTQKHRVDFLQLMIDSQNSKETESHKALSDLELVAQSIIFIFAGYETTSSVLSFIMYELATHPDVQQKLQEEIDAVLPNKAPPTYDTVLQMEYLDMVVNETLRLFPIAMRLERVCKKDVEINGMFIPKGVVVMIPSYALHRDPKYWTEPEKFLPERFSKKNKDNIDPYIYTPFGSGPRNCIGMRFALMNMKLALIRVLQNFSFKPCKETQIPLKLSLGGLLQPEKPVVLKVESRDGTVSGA
Method: as §1
After a 10 min pre-incubation at 37° C., the reaction was started with addition of NADPH at a final concentration of 1.0 mM. […] The samples are centrifuged for 10 min at 4° C. at 4000 rpm and 60 microliters supernatant is diluted with 180 microliters water. Each sample is injected onto a UPLC/MS system for the simultaneous measurement of the probe substrate metabolites and their associated deuterated internal standards.
as §3

[7] = molecular target: Cytochrome P450 2C9 (Homo sapiens, UniProt P11712); assay: Human liver microsomal cytochrome P450 cocktail inhibition assay, Protocol C; conditions: 2C9 Tolbut pIC50, human liver microsomes 0.2 mg/ml; probe tolbutamide 100 microM
Cytochrome P450 2C9, sequence (P11712 whole entry): as the sequence (P11712 whole entry) above
Method: as §1, §2, §3

[8] = test system: Microsporum canis B68128; assay: Antifungal activity in vitro (resazurin susceptibility screen), Inf. B; type: cell-based; conditions: Microsporum canis, B68128, Microsporum canis B68128; 27 °C, 9 days, resa time 24 hours; read-out: Inf. B pIC50 (converted)
How it was run: (§4)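 Each well was inoculated with 10^3 cfu of fungus onto dried, pre-spotted compound serial dilutions in RPMI-MOPS medium, with fungal growth read by resazurin. Growth was referenced to drug-free culture (100%) and medium-only (0%) controls on each plate.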

[9] = Liver metabolic stability assay, gpLM; type: in vitro ADME, guinea pig; conditions: guinea pig microsomes, 1 mg protein/ml, 5 μM test compound, 15 min, 37 °C
[10] = test system: Mucor circinelloides IHEM21105; assay: Antifungal activity in vitro (resazurin susceptibility screen), Inf. L; type: cell-based; conditions: 27 °C, 48 hours, resa time 17 hours, read-out: Inf. L pIC50 (converted)
Method: (§5) The standard susceptibility screen was performed in 96-well plates (U-bottom, Greiner Bio-One). […] These serial dilutions (10 n1) were then spotted onto test-plates that could be stored in the dark at 4° C. for a maximum period of 2 weeks. […] The different fungal species/isolates (Table 3a) were cryopreserved and 1/1000 diluted in medium just prior to use. A standard inoculum of 200 μl containing 10^3 colony-forming unit (cfu) was then added to each well. A positive control (100% growth=fungal culture without antifungal) and a negative control (0% growth ═RPMI-MOPS medium) were included on each plate. […] [table]

[11] = test system: Rhizomucor miehei IHEM13391; assay: Antifungal activity in vitro (resazurin susceptibility screen), Inf. K; type: cell-based; conditions: 37 °C, 48 hours, resa time 17 hours, read-out: Inf. K pIC50 (converted)
Method: as §5

[12] = test system: Cryptococcus neoformans B66663; assay: Antifungal activity in vitro (resazurin susceptibility screen), Inf. F; type: cell-based; conditions: Cryptococcus neoformans, B66663, Cryptococcus neoformans B66663; 37 °C, 24 hours, resa time 4 hours; read-out: Inf. F pIC50 (converted)
How it was run: (§6)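 Each well is seeded with 10^3 colony-forming units against spotted compound dilutions; untreated fungus and plain RPMI-MOPS define the 100% and 0% growth limits.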

[13] = test system: Trichophyton mentagrophytes B70554; assay: Antifungal activity in vitro (resazurin susceptibility screen), Inf. G; type: cell-based; conditions: Trichophyton mentagrophytes, B70554, Trichophyton mentagrophytes B70554; 27 °C, 7 days, resa time 24 hours; read-out: Inf. G pIC50 (converted)
How it was run: as §4

[14] = test system: Rhizopus oryzae IHEM5223; assay: Antifungal activity in vitro (resazurin susceptibility screen), Inf. J; type: cell-based; conditions: Rhizopus arrhizus, 37 °C, 24 hours, resa time 6 hours, read-out: Inf. J pIC50 (converted)
Method: as §5

[15] = test system: Scedosporium apiospermum IHEM3817; assay: Antifungal activity in vitro (resazurin susceptibility screen), Inf. H; type: cell-based; conditions: 37 °C, 48 hours, resa time 17 hours, read-out: Inf. H pIC50 (converted)
Method: as §5

[16] = test system: Aspergillus fumigatus B42928; assay: Antifungal activity in vitro (resazurin susceptibility screen), Inf. E; type: cell-based; conditions: Aspergillus fumigatus B42928; 27 °C, 48 hours, resa time 17 hours; read-out: Inf. E pIC50 (converted)
How it was run: as §6

[17] = Liver metabolic stability assay, mLM; type: in vitro ADME; conditions: mouse liver microsomes, 1 mg protein/ml, 5 μM test compound, 15 min, 37 °C
Method: Liver preparations (microsomal fractions) were obtained from BD Gentest (San Jose, Calif., US). Metabolic stability was assessed using the following assay conditions. […] The mixture was pre-incubated at 37° C. for 5 min and the enzymatic reaction was started by addition of 5 μM test compound. After 0 (control) and 15 minutes (min), the reactions were terminated by addition of […] (500 μl). The precipitated material was removed by centrifugation at 1200 g for 10 min. The supernatant was analysed by LC-MS/MS on a ThermoFinnigan LCQ Deca XP ion-trap mass spectrometer equipped with an atmospheric pressure chemical ionisation source. Calculation of %-compound remaining was as described by Kantharaj et al. 2003 ((Kantharaj E., Tuytelaars A, Proost P E A, Ongel Z, van […] (2003). Simultaneous measurement of drug metabolic stability and identification of metabolites using ion-trap mass spectrometry.

[18] = test system: Sporothrix schenkii B62482; assay: Antifungal activity in vitro (resazurin susceptibility screen), Inf. A; type: cell-based; conditions: Sporothrix, B62482, Sporothrix schenkii B62482; 27 °C, 4 days, resa time 24 hours; highest in-test concentration 64 μM; read-out: Inf. A pIC50 (converted)
How it was run: as §6

[19] = test system: Scedosporium prolificans IHEM21157; assay: Antifungal activity in vitro (resazurin susceptibility screen), Inf. I; type: cell-based; conditions: Lomentospora prolificans, 37 °C, 48 hours, resa time 17 hours, read-out: Inf. I pIC50 (converted)
Method: as §5

[20] = test system: Candida parapsilosis B66126; assay: Antifungal activity in vitro (resazurin susceptibility screen), Inf. D; type: cell-based; conditions: Lodderomyces parapsilosis; Candida parapsilosis B66126; 37 °C, 24 hours, resa time 4 hours; read-out: Inf. D pIC50 (converted)
How it was run: as §4

[21] = Liver metabolic stability assay, hLM; type: in vitro ADME, human; conditions: human liver microsomes, 1 mg protein/ml, 5 μM test compound, 15 min, 37 °C
[22] = test system: Trichophyton rubrum B68183; assay: Antifungal activity in vitro (resazurin susceptibility screen), Inf. C; type: cell-based; conditions: Trichophyton rubrum B68183; 27 °C, 7 days, resa time 24 hours; read-out: Inf. C pIC50 (converted)
How it was run: as §6

| SMILES | IC50 [1] | IC50 [2] | IC50 [3] | IC50 at 10 min [4] | IC50 [5] | IC50 at 10 min [6] | IC50 [7] | 1A2_Phen pIC50 [5] | also measured |
| --- | --- | --- | --- | --- | --- | --- | --- | --- | --- |
| CCc1ccc(C2NCc3c(Cl)cccc3-n3cccc32)cc1 (centres unmarked) | > 10 µM | 1 µM | 3.16 µM | 10 µM | > 10 µM |  |  |  |  |
| Br.CCc1ccc(C2NCc3c(Cl)cccc3-n3cccc32)cc1 (centres unmarked) |  | 0.794 µM | 2 µM |  |  | > 10 µM | 7.94 µM | <5.0 | 2C8_Amod pIC50 [1]: <5.0 |
| CCc1ccc(C2NCc3ccc(Cl)cc3-n3cccc32)cc1 (centres unmarked) | > 10 µM | 0.316 µM | 3.98 µM | 10 µM | > 10 µM | 6.31 µM |  |  |  |
| CS(=O)(=O)c1ccc(C2=NCc3c(Cl)cccc3-n3cccc32)cc1 [Compound 28, 7-chloro-4-[4-(methylsulfonyl)phenyl]-6H-pyrrolo[1,2-a][1,4]benzodiazepine] |  |  |  |  |  |  |  |  | IC50 [8]: 1.26 µM; %-compound metabolised Met_gpLM [9]: 21%; IC50 [10]: > 63.1 µM; IC50 [11]: > 63.1 µM; IC50 [12]: > 63.1 µM; IC50 [13]: 2.51 µM; IC50 [14]: > 63.1 µM; IC50 [15]: > 63.1 µM; IC50 [16]: > 63.1 µM; %-compound metabolised Met_mLM [17]: 41%; IC50 [18]: > 63.1 µM; IC50 [19]: 7.94 µM; IC50 [20]: > 63.1 µM; %-compound metabolised_Met_hLM [21]: 2%; melting point: 218.5 to 219.9 °C; IC50 [22]: 2 µM |
| Br.CC(=O)c1ccc(C2NCc3c(Cl)cccc3-n3cccc32)cc1 (centres unmarked) [drawing 96] |  | 1.26 µM | 2 µM |  |  | 5.01 µM | 2.51 µM | <5.0 |  |
